Assay results reported in PubChem BioAssay AID2060485 (Molecular Pharmacology Branch, DTP, NCI, 2025).

Tested on: A375 multi-cell spheroids with HUVEC/MSC, viability
Assay: Anticancer human tumor A375 cell line growth inhibition [GQUAD];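 note: spheroids exposed to compounds for seven days before readout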
Settings: for IC50: curve of first compound; for viability, T/C: stronger effect = lower value
Method in brief: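 Tumor cells were grown as complex spheroids with HUVEC endothelial cells and mesenchymal stem cells as stroma. G-quadruplex stabilizers were combined with targeted agents over half-log dilutions from near the clinical Cmax, or from 10 microM.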

[1] = second compound 0.0316 µM, first compound 0.0316 µM
[2] = second compound 0.0316 µM, first compound 0.1 µM
[3] = second compound 0.0316 µM, first compound 0.316 µM
[4] = second compound 0.0316 µM, first compound 1 µM
[5] = second compound 0.0316 µM, first compound 3.16 µM
[6] = second compound 0.0316 µM, first compound 10 µM
[7] = second compound 0.1 µM, first compound 0.0316 µM
[8] = second compound 0.1 µM, first compound 0.1 µM
[9] = second compound 0.1 µM, first compound 0.316 µM
[10] = second compound 0.1 µM, first compound 1 µM
[11] = second compound 0.1 µM, first compound 3.16 µM
[12] = second compound 0.1 µM, first compound 10 µM
[13] = second compound 0.316 µM, first compound 0.0316 µM
[14] = second compound 0.316 µM, first compound 0.1 µM
[15] = second compound 0.316 µM, first compound 0.316 µM
[16] = second compound 0.316 µM, first compound 1 µM
[17] = second compound 0.316 µM, first compound 3.16 µM
[18] = second compound 0.316 µM, first compound 10 µM
[19] = second compound 1 µM, first compound 0.0316 µM
[20] = second compound 1 µM, first compound 0.1 µM
[21] = second compound 1 µM, first compound 0.316 µM
[22] = second compound 1 µM, first compound 1 µM
[23] = second compound 1 µM, first compound 3.16 µM
[24] = second compound 1 µM, first compound 10 µM
[25] = second compound 3.16 µM, first compound 0.0316 µM
[26] = second compound 3.16 µM, first compound 0.1 µM
[27] = second compound 3.16 µM, first compound 0.316 µM
[28] = second compound 3.16 µM, first compound 1 µM
[29] = second compound 3.16 µM, first compound 3.16 µM
[30] = second compound 3.16 µM, first compound 10 µM
[31] = second compound 10 µM, first compound 0.0316 µM
[32] = second compound 10 µM, first compound 0.1 µM
[33] = second compound 10 µM, first compound 0.316 µM
[34] = second compound 10 µM, first compound 1 µM
[35] = second compound 10 µM, first compound 3.16 µM
[36] = second compound 10 µM, first compound 10 µM

Work on CC1COCCN1c1cc(C2(O)CC3CCC(C2)O3)c2cnn(-c3ccn[nH]3)c2n1 (stereo unspecified) + Cc1[nH]c2ccc(F)cc2c1-c1nc2c3cccnc3c3ncccc3c2[nH]1 yielded an IC50 (second compound 0.0316 µM) of 0.339 µM, an IC50 (second compound 0.1 µM) of 0.352 µM and an IC50 (second compound 0.316 µM) of 0.282 µM. The IC50 (second compound 1 µM) was 0.21 µM, the IC50 (second compound 3.16 µM) was < 0.0316 µM and the IC50 (second compound 10 µM) was < 0.0316 µM. For the same compound, the viability, T/C [1] was 114%, the viability, T/C [2] was 103% and the viability, T/C [3] was 51.9%. The viability, T/C [4] was 16.9%, the viability, T/C [5] was 12.2% and the viability, T/C [6] was 8.69%. For the same compound, the viability, T/C [7] was 113%, the viability, T/C [8] was 94.9% and the viability, T/C [9] was 54%. It also gave a viability, T/C [10] of 18%, a viability, T/C [11] of 13.2% and a viability, T/C [12] of 7.58%. It also gave a viability, T/C [13] of 122%, a viability, T/C [14] of 85% and a viability, T/C [15] of 47.8%. For the same compound, the viability, T/C [16] was 19.7%, the viability, T/C [17] was 13.3% and the viability, T/C [18] was 9.21%. The viability, T/C [19] was 79.1%, the viability, T/C [20] was 67.4% and the viability, T/C [21] was 40.7%. For the same compound, the viability, T/C [22] was 16.6%, the viability, T/C [23] was 13.3% and the viability, T/C [24] was 8.26%. For the same compound, the viability, T/C [25] was 31.5%, the viability, T/C [26] was 17.9% and the viability, T/C [27] was 13.5%. The viability, T/C [28] was 11.2%, the viability, T/C [29] was 6.29% and the viability, T/C [30] was 1.15%. It also gave a viability, T/C [31] of 39%, a viability, T/C [32] of 18.9% and a viability, T/C [33] of 18.6%. The viability, T/C [34] was 9.83%, the viability, T/C [35] was 11.4% and the viability, T/C [36] was 3.18%.

For O=C(c1cc(Cc2n[nH]c(=O)c3ccccc23)ccc1F)N1CCN(C(=O)C2CC2)CC1 + CN(C)c1ccc(Nc2c3ccc(NC(=O)CCN4CCCC4)cc3nc3cc(NC(=O)CCN4CCCC4)ccc23)cc1, the IC50 (second compound 0.0316 µM) was > 10 µM, the IC50 (second compound 0.1 µM) was > 10 µM and the IC50 (second compound 0.316 µM) was > 10 µM. The IC50 (second compound 1 µM) was > 10 µM, the IC50 (second compound 3.16 µM) was > 10 µM and the IC50 (second compound 10 µM) was > 10 µM. It also gave a viability, T/C [1] of 104%, a viability, T/C [2] of 95.7% and a viability, T/C [3] of 113%. It also gave a viability, T/C [4] of 99.9%, a viability, T/C [5] of 103% and a viability, T/C [6] of 81.1%. It also gave a viability, T/C [7] of 104%, a viability, T/C [8] of 102% and a viability, T/C [9] of 103%. The viability, T/C [10] was 100%, the viability, T/C [11] was 102% and the viability, T/C [12] was 75.6%. For the same compound, the viability, T/C [13] was 101%, the viability, T/C [14] was 101% and the viability, T/C [15] was 102%. The viability, T/C [16] was 105%, the viability, T/C [17] was 97.6% and the viability, T/C [18] was 77.6%. It also gave a viability, T/C [19] of 97.1%, a viability, T/C [20] of 102% and a viability, T/C [21] of 93.8%. For the same compound, the viability, T/C [22] was 103%, the viability, T/C [23] was 102% and the viability, T/C [24] was 86.8%. The viability, T/C [25] was 100%, the viability, T/C [26] was 97.5% and the viability, T/C [27] was 100%. The viability, T/C [28] was 101%, the viability, T/C [29] was 103% and the viability, T/C [30] was 73.6%. It also gave a viability, T/C [31] of 100%, a viability, T/C [32] of 96.4% and a viability, T/C [33] of 98.8%. For the same compound, the viability, T/C [34] was 103%, the viability, T/C [35] was 92.9% and the viability, T/C [36] was 66.7%.

With Cc1cccc(N(C)C(=O)C2C(O)CCN2c2nc(C)cc(C(F)(F)F)c2C#N)c1 (stereo unspecified) + CN(C)c1ccc(Nc2c3ccc(NC(=O)CCN4CCCC4)cc3nc3cc(NC(=O)CCN4CCCC4)ccc23)cc1 the IC50 (second compound 0.0316 µM) was > 10 µM, the IC50 (second compound 0.1 µM) was > 10 µM and the IC50 (second compound 0.316 µM) was > 10 µM. For the same compound, the IC50 (second compound 1 µM) was > 10 µM, the IC50 (second compound 3.16 µM) was > 10 µM and the IC50 (second compound 10 µM) was > 10 µM. It also gave a viability, T/C [1] of 103%, a viability, T/C [2] of 98.6% and a viability, T/C [3] of 104%. The viability, T/C [4] was 105%, the viability, T/C [5] was 105% and the viability, T/C [6] was 102%. The viability, T/C [7] was 113%, the viability, T/C [8] was 104% and the viability, T/C [9] was 99.8%. For the same compound, the viability, T/C [10] was 97%, the viability, T/C [11] was 107% and the viability, T/C [12] was 102%. For the same compound, the viability, T/C [13] was 113%, the viability, T/C [14] was 101% and the viability, T/C [15] was 101%. For the same compound, the viability, T/C [16] was 109%, the viability, T/C [17] was 99.1% and the viability, T/C [18] was 95.7%. The viability, T/C [19] was 107%, the viability, T/C [20] was 98.3% and the viability, T/C [21] was 97.3%. It also gave a viability, T/C [22] of 96.9%, a viability, T/C [23] of 104% and a viability, T/C [24] of 97.3%. For the same compound, the viability, T/C [25] was 117%, the viability, T/C [26] was 106% and the viability, T/C [27] was 93.9%. It also gave a viability, T/C [28] of 101%, a viability, T/C [29] of 98% and a viability, T/C [30] of 100%. It also gave a viability, T/C [31] of 95.7%, a viability, T/C [32] of 96.3% and a viability, T/C [33] of 89.9%. It also gave a viability, T/C [34] of 93.7%, a viability, T/C [35] of 96.5% and a viability, T/C [36] of 74.3%.
